Patent publication US6448032B1, “Human melanocyte stimulating hormone receptor polypeptide and DNA” (priority 1992, dated 2002)
No end group written: not given here.

Key:
MSH receptor [1] = target: T1, MSH receptor (Homo sapiens, UniProt Q01726); experiment: Inhibition of 125I-NDP-MSH binding to stable COS-7 cell line harbouring pRC/CMV-11D; conditions: NDP-MSH radioligand competition
T1 construct: This polypeptide constitutes the entire polypeptide of an MSH receptor; expressed in transfected cells; host or cells: COS-7 cells, transient, plasmid pE-11D (pcDNAI)
T1 sequence (Q01726 whole entry): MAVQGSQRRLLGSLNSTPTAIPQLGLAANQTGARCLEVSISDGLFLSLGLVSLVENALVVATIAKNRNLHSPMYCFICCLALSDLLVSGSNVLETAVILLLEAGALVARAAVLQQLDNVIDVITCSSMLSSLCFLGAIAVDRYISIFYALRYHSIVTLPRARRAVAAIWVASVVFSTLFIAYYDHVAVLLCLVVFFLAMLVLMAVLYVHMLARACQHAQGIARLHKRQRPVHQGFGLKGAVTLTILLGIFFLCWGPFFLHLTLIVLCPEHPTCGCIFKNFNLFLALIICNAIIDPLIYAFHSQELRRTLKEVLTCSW
Experimental: COS-7 cells (available from ATCC) were grown in Dulbecco's modified Eagle medium with 8% fetal calf serum and non-essential amino acids (Gibco/BRL, 8400 Helgerman Court, Gaithersburg, Md. 20877, USA) in serum free medium, five hours after transfection, serum containing medium was replaced, and cells were cultivated for 48 hours. At this time selection for the calls stably harbouring the pRC/CMV-11D plasmid was begun by growing the cells in neomycin (0.5 mg/ml) containing medium (selection medium). Selection procedure was continued for two weeks, replacing the selection medium every 4th day. surviving cells were collected and maintained in the selection medium. These cells constitute the stable cell line.
To investigate the binding properties cells were scraped off from the culture flask, centrifuged, resuspended in selection medium, plated on 48 well, and allowed to grow for 24 hours. […] Radioactivity was counted and data analyzed by an iterative, non-linear curve fitting programme suitable for radioligand binding analysis. […]

MSH receptor [2] = target: T1, MSH receptor; experiment: Inhibition of 125I-NDP-MSH binding to COS-7 cells transfected with MSH receptor cDNA (pE-11D); conditions: pE-11D transfected COS-7 cells
Experimental: (§1) Eighty percent confluent cultures were transfected with 1 μg of pE-11D plasmid DNA and 40 μg lipofectin (BRL, 8400 Helgerman Court, Gaithersburg, Md. 20877, USA) in serum free medium. Five hours after transfection, serum containing medium was replaced, and cells were cultivated for 20 hours. Cells were then scraped off, centrifuged, resuspended in serum containing medium, plated on 48 well plates, and allowed to grow for 24 hours. […] Radioactivity was counted and data analyzed by iterative, non-linear curve fitting programme suitable for radioligand binding analysis (see FIG. 6).

MC-2 receptor = target: T2, MC-2 receptor (Homo sapiens, UniProt P33032); experiment: Inhibition of 125I-NDP-MSH binding to COS-7 cells transfected with pE-MC-2; conditions: pE-MC-2 transfected COS-7 cells
T2 construct: expressed in transfected cells; host or cells: COS-7 cells, transient, plasmid pE-MC-2 (pRC/CMV)
T2 sequence (P33032 whole entry): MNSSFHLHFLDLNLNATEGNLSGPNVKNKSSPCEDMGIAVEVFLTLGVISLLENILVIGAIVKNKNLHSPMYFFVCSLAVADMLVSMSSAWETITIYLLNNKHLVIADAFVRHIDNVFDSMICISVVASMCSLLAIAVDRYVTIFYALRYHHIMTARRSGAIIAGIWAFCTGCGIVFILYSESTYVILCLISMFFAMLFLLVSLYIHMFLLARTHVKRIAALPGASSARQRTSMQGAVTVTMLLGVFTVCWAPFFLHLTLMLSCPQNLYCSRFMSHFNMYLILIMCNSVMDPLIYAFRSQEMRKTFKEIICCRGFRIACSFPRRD
Experimental: as §1, with “pE-MC-2” for “pE-11D”, “9).” for “6).”

[3] = 37° C., 2 hours, Ki from IC-50 by Cheng and Prusoff equation, read-out: Ki for inhibiting 125I-NDP-MSH binding

| Compound | binding affinity for the expressed MSH receptor (MSH receptor [1]) | Ki (MSH receptor [2]; [3]) [nM] | Ki (MC-2 receptor; [3]) [nM] | affinity for the expressed MSH receptor (MSH receptor [2]; 125I-NDP-MSH competition) | affinity for the expressed MC-2 receptor (MC-2 receptor; 125I-NDP-MSH competition) |
| --- | --- | --- | --- | --- | --- |
| CSCC[C@H](N)C(=O)N[C@@H](CCC(=O)O)C(=O)N[C@@H](Cc1c[nH]cn1)C(=O)N[C@@H](Cc1ccccc1)C(=O)N[C@@H](CCCNC(=N)N)C(=O)N[C@@H](Cc1c[nH]c2ccccc12)C(=O)NCC(=O)O [ACTH (4-10)] | very low binding affinity | – | – | – | – |
| SYSMEHFRWGKPVGKKRRPVKVYPNGAEDESAEAFPLEF [ACTH (1-39)] | – | 0.17 ± 0.037 | 929 ± 389 | – | – |
| β-endorphin: non-melanotropic POMC peptide | no affinity | – | – | no affinity | no affinity |
